Source: US12473291B2 (priority 2019, dated 2025)
Read-outs that look alike come from different tables or passages of the source.

Columns and labels:
[1] = test system: KM mice; assay: animal or person; type: in vivo; details: for duration and recovery time compared with remimazolam / effective dose compared with remimazolam: mice, tail vein, in words
[2] = test system: SD rats; assay: animal or person; type: in vivo; details: for duration and recovery time compared with remimazolam / effective dose compared with remimazolam: rats, tail vein, in words
[3] = KM mice, single tail vein injection at 2×ED50, time from disappearance to recovery of righting reflex
[4] = KM mice, single tail vein injection at 2×ED50, time from recovery of righting reflex to free crawling
[5] = Mus musculus, KM mice (male, 18-22 g), injection via the tail vein, disappearance of righting reflex, read-out: ED50
[6] = Rattus norvegicus, SD rats (male, 220-300 g), injection via the tail vein, disappearance of righting reflex, read-out: ED50
[7] = SD rats, single tail vein injection at 2×ED50, time from disappearance to recovery of righting reflex
[8] = SD rats, single tail vein injection at 2×ED50, time from recovery of righting reflex to free crawling
[9] = KM mice (male, 18-22 g), injection via the tail vein, disappearance of righting reflex
[10] = SD rats (male, 220-300 g), injection via the tail vein, disappearance of righting reflex

SMILES | 2ED50 duration [1, 3] [min] | 2ED50 recovery time [1, 4] [min] | Quality of recovery ([1]; KM mice, tail vein injection) | ED50 [1, 5] [mg/kg] | ED50 [2, 6] [mg/kg] | 2ED50 duration [2, 7] [min] | 2ED50 recovery time [2, 8] [min] | Quality of recovery ([2]; SD rats, tail vein injection) | also measured
Cc1cnc2n1-c1ccc(Br)cc1C(c1ccccn1)=N[C@H]2CCC(=O)OCOC(=O)OC(C)C [Example 48] | 8.56 | 2.48 | ++++ (“++++” means 5-10 min) | 27 | 5.3 | 4.16 | 2.42 | +++ (“+++” means 3-5 min) | 
CCc1c(Br)cc2c(c1Cl)-n1c(C)cnc1[C@H](CCC(=O)OC(C)(CC)SC(=O)OC)N=C2c1ccccn1 (stereo partly drawn) [Example 63] | 3.14 | 2.03 | ++ (“++” means 1-3 min) | 29.8 | 3.5 | 2.03 | 2.09 | ++ (“++” means 1-3 min) | 
CCOC(=O)COC(=O)CC[C@@H]1N=C(c2ccccn2)c2cc(Br)c(Br)cc2-n2c(C)cnc21 [Example 21] | 3.08 | 2.01 | ++ (“++” means 1-3 min) | 25.9 | 4.2 | 3.08 | 2.27 | ++ (“++” means 1-3 min) | 
COC(=O)C(CC(F)C(C)(C)OC(=O)CC[C@@H]1N=C(c2ccccn2)c2cc(Br)c(OC)cc2-n2c(C)cnc21)OC (stereo partly drawn) [Example 67, Methyl 5-((3-((4S)-8-bromo-9-methoxy-1-methyl-6-(pyridine-2-yl)-4H-benzo [f]imidazo[1,2-a][1,4]diazapin-4-yl)propionyl)oxy)-4-fluoro-2-methoxy-5-hexanoate adipate] | 2.58 | 2.38 | ++ (“++” means 1-3 min) | 31.7 | 6.9 | 3.18 | 3.01 | +++ (“+++” means 3-5 min) | 
CCOC(=O)OC(C)OC(=O)CC[C@@H]1N=C(c2ccccn2)c2cc(Br)c(Br)cc2-n2c(C)cnc21 (stereo partly drawn) [Example 16] | 1.57 | 1.23 |  | 15.7 | 3.4 | 0.57 | 0.53 | + (“+” means <1 min) | duration and recovery time compared with remimazolam [1]: significantly shorter; effective dose compared with remimazolam [1]: significantly lower; duration and recovery time compared with remimazolam [2]: significantly shorter; effective dose compared with remimazolam [2]: significantly lower
COC(=O)C(C)(C)OC(=O)CC[C@@H]1N=C(c2ccccn2)c2cc(Br)c(Cl)cc2-n2c(C)cnc21 [Example 24] | 1.50 | 1.02 |  | 12 | 6.8 | 0.50 | 0.47 | + (“+” means <1 min) | duration and recovery time compared with remimazolam [1]: significantly shorter; effective dose compared with remimazolam [1]: significantly lower; duration and recovery time compared with remimazolam [2]: significantly shorter; effective dose compared with remimazolam [2]: significantly lower
COC(=O)C1(OC(=O)CC[C@@H]2N=C(c3ccccn3)c3cc(Cl)c(C)c(C)c3-n3c(C)cnc32)CC1 [Example 79, 1-((3-((4S)-8-chloro-1,9,10-trimethyl-6-(pyridine-2-yl)-4H-benzo[f]imidazo[1,2-a][1,4]diaza-4-yl)propionyl)oxy) cyclopropane-1-carboxylate 1-naphthoate] | 3.45 | 1.38 | +++ (“+++” means 3-5 min) | 31.3 | 6.6 | 2.48 | 2.19 | +++ (“+++” means 3-5 min) | 
COC(=O)C(C)(C)OC(=O)CC[C@@H]1N=C(c2ccccn2)c2cc(Cl)c(Cl)c(Cl)c2-n2c(C)cnc21 [Example 30] | 4.04 | 1.59 | ++ (“++” means 1-3 min) |  |  | 3.01 | 2.51 | ++ (“++” means 1-3 min) | ED50 [1, 9]: 30.2 mg/kg; ED50 [2, 10]: 6.2 mg/kg
COC(=O)C1(OC(=O)CC[C@@H]2N=C(c3ccccn3)c3ccc(C(F)(F)F)c(Cl)c3-n3c(C)cnc32)CC1 [Example 41] | 3.53 | 1.57 | ++ (“++” means 1-3 min) | 28.9 | 5.9 | 3.43 | 2.47 | ++ (“++” means 1-3 min) | 
COC(=O)C1(OC(=O)CC[C@@H]2N=C(c3ccccn3)c3cc(Cl)c(C(F)(F)F)cc3-n3c(C)cnc32)CC1 [Example 25] | 5.32 | 2.19 | ++ (“++” means 1-3 min) | 34 | 4.2 | 3.53 | 2.21 | ++ (“++” means 1-3 min) | 
CCOC(=O)COC(=O)CC[C@@H]1N=C(c2ccccn2)c2cc(Cl)c(OC(F)(F)F)cc2-n2c(C)cnc21 [Example 28] | 0.52 | 0.58 |  | 9.5 | 4.5 | 0.58 | 0.33 | + (“+” means <1 min) | duration and recovery time compared with remimazolam [1]: significantly shorter; effective dose compared with remimazolam [1]: significantly lower; duration and recovery time compared with remimazolam [2]: significantly shorter; effective dose compared with remimazolam [2]: significantly lower
Cc1cnc2n1-c1cc(Br)c(Br)cc1C(c1ccccn1)=N[C@H]2CCC(=O)OCOC(=O)OC(C)(C)C [Example 11] | 5.31 | 2.13 | ++ (“++” means 1-3 min) | 22.4 | 5.9 | 5.03 | 2.43 | +++ (“+++” means 3-5 min) | 
Cc1c(Cl)c(C(F)(F)F)cc2c1C(c1ccccn1)=N[C@@H](CCC(=O)OC(C)C(=O)OC(C)C)c1ncc(C)n1-2 (stereo partly drawn) [Example 78, 1-Isopropoxy-1-oxopropane-2-yl3-((4S)-8-chloro-1,7-dimethyl-6-(pyridine-2-yl)-9-(trifluoromethyl)-4H-benzo[f]imidazo[1,2-a][1,4]diaza-4-ylpropionate nicotinate] |  |  |  |  |  |  |  |  | ED50 ([1]; Mus musculus): 28.2 mg/kg; 2ED50 duration ([1]; mouse, in vivo): 3.39 min; 2ED50 recovery time ([1]; mouse, in vivo): 1.36 min; Quality of recovery ([1]; mouse, in vivo): ++ (key: “+” means <1 mm; “++” means 1-3 min; “+++” means 3-5 min; “++++” means 5-10 min; “+++++” means >10 mm); ED50 ([2]; Rattus norvegicus): 6.2 mg/kg; 2ED50 duration ([2]; rat, in vivo): 2.55 min; 2ED50 recovery time ([2]; rat, in vivo): 2.38 min; Quality of recovery ([2]; rat, in vivo): ++ (key: “+” means <1 mm; “++” means 1-3 min; “+++” means 3-5 min; “++++” means 5-10 min; “+++++” means >10 mm)
CCOC(=O)OCOC(=O)CC[C@@H]1N=C(c2ccccn2)c2cc(Cl)cc(F)c2-n2c(C)cnc21 [Example 71, ((Ethoxycarbonyl)oxy)methyl 3-((4S)-8-chloro-10-fluoro-1-methyl-6-(pyridine-2-yl)-4H-benzo[f]imidazo [1,2-a][1,4]diaza-4-yl)propionate 2-hydroxypropane-1,2,3-tricarboxylate] |  |  |  |  |  |  |  |  | ED50 ([1]; Mus musculus): 28.2 mg/kg; 2ED50 duration ([1]; mouse, in vivo): 3.09 min; 2ED50 recovery time ([1]; mouse, in vivo): 2.36 min; Quality of recovery ([1]; mouse, in vivo): ++ (key: “+” means <1 mm; “++” means 1-3 min; “+++” means 3-5 min; “++++” means 5-10 min; “+++++” means >10 mm); ED50 ([2]; Rattus norvegicus): 4.8 mg/kg; 2ED50 duration ([2]; rat, in vivo): 3.21 min; 2ED50 recovery time ([2]; rat, in vivo): 2.36 min; Quality of recovery ([2]; rat, in vivo): + (key: “+” means <1 min; “++” means 1-3 min; “+++” means 3-5 min; “++++” means 5-10 min; “+++++” means >10 min)
COC(=O)C(C)OC(=O)CC[C@@H]1N=C(c2ccccn2)c2c(cc(Cl)c(Cl)c2Cl)-n2c(C)cnc21 (stereo partly drawn) [Example 29] | 4.59 | 2.48 | +++ (“+++” means 3-5 min) | 30.8 | 5.8 | 3.59 | 2.44 | +++ (“+++” means 3-5 min) | 
Cc1cnc2n1-c1cc(Br)c(Br)cc1C(c1ccccn1)=N[C@H]2CCC(=O)OC1(C(=O)OOC2CC(Cl)C2)CC1 (stereo partly drawn) [Example 64] | 3.09 | 2.12 | +++ (“+++” means 3-5 min) | 24.1 | 2.7 | 3.15 | 2.18 | ++ (“++” means 1-3 min) | 
COC(=O)C1(OC(=O)CC[C@@H]2N=C(c3ccccn3)c3c(Cl)cc(OC(F)(F)F)cc3-n3c(C)cnc32)CC1.O=C(O)O [Example 43] | 6.01 | 2.13 | ++++ (“++++” means 5-10 min) |  |  | 3.01 | 2.41 | ++ (“++” means 1-3 min) | ED50 [1, 9]: 29.5 mg/kg; ED50 [2, 10]: 6.5 mg/kg
CCOC(=O)C1(OC(=O)CC[C@@H]2N=C(c3ccccn3)c3cc(Br)c(Br)cc3-n3c(C)cnc32)CC1 [Example 19] | 6.07 | 2.09 | ++++ (“++++” means 5-10 min) | 23.2 | 5.6 | 4.07 | 2.12 | +++ (“+++” means 3-5 min) | 
